Reference: US20260285850A1, “SUBSTITUTED OXAZOLIDINONES AND IMIDAZOLINONES AS HERBICIDES” (FMC CORPORATION, priority 2023, published 2026)

Legend:
Format in all cases: in vivo
[1] = tested on: ragweed (common ragweed, Ambrosia artemisiifolia); assay: Test A postemergence application, visual injury rating 0-100; details: 10 days
Source text: (§1) Seeds of plant species selected from barnyardgrass (Echinochloa crus-galli), blackgrass (Alopecurus myosuroides), corn (Zea mays), foxtail, giant (giant foxtail, Setaria faberi), green foxtail (Setaria viridis), goosegrass (Eleusine indica), kochia (Bassia scoparia), oat, wild (wild oat, Avena fatua), palmer (palmer amaranth, palmer pigweed, Amaranthus palmeri), ragweed (common ragweed, Ambrosia artemisiifolia), ryegrass, Italian (italian ryegrass, Lolium multiflorum), soybean (Glycine max) and wheat (Triticum aestivum) were planted into a blend of loam soil and sand and treated preemergence with a directed soil spray using test chemicals formulated in a non-phytotoxic solvent mixture which included a surfactant.
(§2) At the same time, plants selected from these crops and weed species and also galium (catchweed bedstraw, Galium aparine) and horseweed (Erigeron canadensis) were planted in pots containing the same blend of loam soil and sand and treated with postemergence applications of test chemicals formulated in the same manner. Plants ranged in height from 2 to 10 cm and were in the one- to two-leaf stage for the postemergence treatment. Treated plants and untreated controls were maintained in a greenhouse for 10 days, after which time all treated plants were compared to untreated controls and visually evaluated for injury. Plant response ratings, summarized in Table A, are based on a 0 to 100 scale where 0 is no effect and 100 is complete control. A dash (-) response means no test result.

corn (Zea mays) [2] = assay: as above; details: 10 days
Source text: as §1, §2

[3] = tested on: ryegrass, Italian (italian ryegrass, Lolium multiflorum); assay: as above; details: 10 days
Source text: as §1, §2

[4] = tested on: blackgrass (Alopecurus myosuroides); assay: as above; details: 10 days
Source text: as §1, §2

[5] = tested on: palmer (palmer amaranth, palmer pigweed, Amaranthus palmeri); assay: as above; details: 10 days
Source text: as §1, §2

[6] = tested on: wheat (Triticum aestivum); assay: as above; details: 10 days
Source text: as §1, §2

[7] = tested on: oat, wild (wild oat, Avena fatua); assay: as above; details: 10 days
Source text: as §1, §2

[8] = tested on: barnyardgrass (Echinochloa crus-galli); assay: as above; details: 10 days
Source text: as §1, §2

kochia (Bassia scoparia) [9] = assay: as above; details: 10 days
Source text: as §1, §2

[10] = tested on: horseweed (Erigeron canadensis); assay: as above; details: 10 days
Source text: as §1, §2

[11] = tested on: green foxtail (Setaria viridis); assay: as above; details: 10 days
Source text: as §1, §2

soybean (Glycine max) [12] = assay: as above; details: 10 days
Source text: as §1, §2

[13] = tested on: ducksalad (Heteranthera limosa); assay: Test B flooded paddy test, visual plant response rating 0-100; details: 250 g ai/ha, Flood, applied to paddy water, evaluated after 13 days
Protocol: (§3) Plant species in the flooded paddy test selected from barnyardgrass (Echinochloa crusgalli), ducksalad (Heteranthera limosa), rice (Oryza sativa), and sedge, umbrella (small-flower umbrella sedge, Cyperus difformis) were grown to the 2-leaf stage for testing. At time of treatment, test pots were flooded to 3 cm above the soil surface, treated by application of test compounds directly to the paddy water, and then maintained at that water depth for the duration of the test. Treated plants and controls were maintained in a greenhouse for 13 days, after which time all species were compared to controls and visually evaluated. […] A dash (-) response means no test result.

[14] = tested on: sedge, umbrella (small-flower umbrella sedge, Cyperus difformis); assay: as above; details: 250 g ai/ha, Flood, applied to paddy water, evaluated after 13 days
Protocol: as §3

[15] = tested on: barnyardgrass (Echinochloa crusgalli); assay: as above; details: 250 g ai/ha, Flood, applied to paddy water, evaluated after 13 days
Protocol: as §3

rice (Oryza sativa) = assay: as above; details: 250 g ai/ha, Flood, applied to paddy water, evaluated after 13 days
Protocol: as §3

[16] = tested on: ragweed (common ragweed, Ambrosia artemisiifolia); assay: Test A preemergence soil spray, visual injury rating 0-100; details: 10 days, 0 = no effect, 100 = complete control
Source text: as §1, §2

corn (Zea mays) [17] = assay: as above; details: 10 days, 0 = no effect, 100 = complete control
Source text: as §1, §2

[18] = tested on: ryegrass, Italian (italian ryegrass, Lolium multiflorum); assay: as above; details: 10 days, 0 = no effect, 100 = complete control
Source text: as §1, §2

[19] = tested on: blackgrass (Alopecurus myosuroides); assay: as above; details: 10 days, 0 = no effect, 100 = complete control
Source text: as §1, §2

[20] = tested on: palmer (palmer amaranth, palmer pigweed, Amaranthus palmeri); assay: as above; details: 10 days, 0 = no effect, 100 = complete control
Source text: as §1, §2

[21] = tested on: wheat (Triticum aestivum); assay: as above; details: 10 days, 0 = no effect, 100 = complete control
Source text: as §1, §2

[22] = tested on: oat, wild (wild oat, Avena fatua); assay: as above; details: 10 days, 0 = no effect, 100 = complete control
Source text: as §1, §2

[23] = tested on: barnyardgrass (Echinochloa crus-galli); assay: as above; details: 10 days, 0 = no effect, 100 = complete control
Source text: as §1, §2

kochia (Bassia scoparia) [24] = assay: as above; details: 10 days, 0 = no effect, 100 = complete control
Source text: as §1, §2

[25] = tested on: green foxtail (Setaria viridis); assay: as above; details: 10 days, 0 = no effect, 100 = complete control
Source text: as §1, §2

soybean (Glycine max) [26] = assay: as above; details: 10 days, 0 = no effect, 100 = complete control
Source text: as §1, §2

[27] = 31 g ai/ha, postemergence, 0 = no effect, 100 = complete control
[28] = Postemergence, 125 g ai/ha, 0 is no effect, 100 is complete control

CC1(C(=O)NC2CCC(C(=O)O)C2)CN(c2cc(F)cc(F)c2)C(=O)O1 (centres unmarked) [Compound 9]
30: Foxtail, Green plant response rating (0-100) [11, 27] | Kochia plant response rating (0 to 100 scale) (kochia (Bassia scoparia) [24]; 125 g ai/ha)
60: Blackgrass plant response rating (0-100) [4, 27] | Soybean plant response rating (0-100) (soybean (Glycine max) [12]; [27])
100: Corn plant response rating (0 to 100 scale) (corn (Zea mays) [2]; [28]) | Barnyardgrass plant response rating (0 to 100 scale) [8, 28]
70: Blackgrass plant response rating (0 to 100 scale) [4, 28] | Barnyardgrass plant response rating (0-100) [8, 27] | Soybean plant response rating (0 to 100 scale) (soybean (Glycine max) [12]; [28])
50: Ryegrass, Italian plant response rating (0-100) [3, 27] | Kochia plant response rating (0-100) (kochia (Bassia scoparia) [9]; [27]) | Barnyardgrass plant response rating (0 to 100 scale) ([23]; 125 g ai/ha)
0: Ragweed plant response rating (0-100) [1, 27] | Ragweed plant response rating (0 to 100 scale) [1, 28] | Horseweed plant response rating (0-100) [10, 27] | Plant response rating, Ducksalad (0 to 100 scale, 0 is no effect and 100 is complete control) [13] | Plant response rating, Sedge, Umbrella (0 to 100 scale, 0 is no effect and 100 is complete control) [14] | Plant response rating, Barnyardgrass (0 to 100 scale, 0 is no effect and 100 is complete control) [15] | Plant response rating, Rice (0 to 100 scale, 0 is no effect and 100 is complete control) (rice (Oryza sativa)) | Ragweed plant response rating (0-100) ([16]; 31 g ai/ha) | Ragweed plant response rating (0 to 100 scale) ([16]; 125 g ai/ha) | Ryegrass, Italian plant response rating (0-100) ([18]; 31 g ai/ha) | Blackgrass plant response rating (0-100) ([19]; 31 g ai/ha) | Amaranth, Palmer plant response rating (0-100) ([20]; 31 g ai/ha) | Oat, Wild plant response rating (0-100) ([22]; 31 g ai/ha) | Barnyardgrass plant response rating (0-100) ([23]; 31 g ai/ha) | Kochia plant response rating (0-100) (kochia (Bassia scoparia) [24]; 31 g ai/ha) | Foxtail, Green plant response rating (0-100) ([25]; 31 g ai/ha) | Soybean plant response rating (0-100) (soybean (Glycine max) [26]; 31 g ai/ha)
20: Corn plant response rating (0-100) (corn (Zea mays) [2]; [27])
90: Amaranth, Palmer / Pigweed, Palmer plant response rating (0 to 100 scale) [5, 28] | Wheat plant response rating (0-100) [6, 27] | Wheat plant response rating (0 to 100 scale) [6, 28] | Oat, Wild plant response rating (0-100) [7, 27] | Oat, Wild plant response rating (0 to 100 scale) [7, 28] | Foxtail, Green plant response rating (0 to 100 scale) [11, 28] | Ryegrass, Italian plant response rating (0 to 100 scale) ([18]; 125 g ai/ha) | Wheat plant response rating (0 to 100 scale) ([21]; 125 g ai/ha) | Oat, Wild plant response rating (0 to 100 scale) ([22]; 125 g ai/ha) | Foxtail, Green plant response rating (0 to 100 scale) ([25]; 125 g ai/ha)
10: Amaranth, Palmer plant response rating (0-100) [5, 27] | Horseweed plant response rating (0 to 100 scale) [10, 28] | Corn plant response rating (0-100) (corn (Zea mays) [17]; 31 g ai/ha) | Amaranth, Palmer plant response rating (0 to 100 scale) ([20]; 125 g ai/ha)
80: Ryegrass, Italian plant response rating (0 to 100 scale) [3, 28] | Kochia plant response rating (0 to 100 scale) (kochia (Bassia scoparia) [9]; [28]) | Corn plant response rating (0 to 100 scale) (corn (Zea mays) [17]; 125 g ai/ha) | Blackgrass plant response rating (0 to 100 scale) ([19]; 125 g ai/ha) | Wheat plant response rating (0-100) ([21]; 31 g ai/ha) | Soybean plant response rating (0 to 100 scale) (soybean (Glycine max) [26]; 125 g ai/ha)
